Laboratory results from US5556744A, “Methods and compositions for diagnosing and treating certain HIV infected patients” (The Trustees of the University of Pennsylvania, priority 1994, dated 1996).

What was measured:
[1] = tested on: maternal HIV+ sera (antibodies); test: RIA / ELISA binding of maternal HIV+ sera to gp120 and gp41 peptides (Example 3); parameters: species or system human
How it was run: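 Peptides were coated at 10 μg/ml in carbonate buffer pH 9.6 and blocked with 1% BSA. Sera at 1:50 and 1:500 were incubated overnight at 4°C and detected with ¹²⁵I anti-human IgG (RIA) or HRP/TMB at OD450 (ELISA). Specific binding was taken as peptide minus no-peptide wells, scored as a ratio to normal human serum.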

[2] = tested on: maternal sera (antibodies); test: ELISA peptide-binding of maternal sera (Example 6); parameters: species or system human; conditions: for Number of Non-Transmitters which bound to peptide / Percent of Non-Transmitters which bound to peptide: N = 12; for Number of Transmitters which bound to peptide / Percent of Transmitters which bound to peptide: N = 4
How it was run: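 Third-trimester maternal sera, from HIV-1 transmitting and non-transmitting mothers, were tested by ELISA against ~16-residue peptides spanning HIV-1 external and transmembrane glycoproteins. Each serum was run with at least 40 peptides, and values are the percentage of sera binding each peptide.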

[3] = Serum No. 1, Non-Transmission Group
[4] = Serum No. 2, Non-Transmission Group
[5] = Serum No. 3, Non-Transmission Group
[6] = Serum No. 4, Transmission Group
[7] = Serum No. 5, Transmission Group
[8] = Serum No. 6, Non-Transmission Group
[9] = Serum No. 7, Non-Transmission Group
[10] = Serum No. 8, Non-Transmission Group
[11] = Serum No. 9, Non-Transmission Group
[12] = Serum No. 10, Transmission Group
[13] = Serum No. 11, Non-Transmission Group
[14] = Serum No. 12, Non-Transmission Group
[15] = Serum No. 13, Transmission Group
[16] = Serum No. 14, Transmission Group
[17] = Serum No. 15, Transmission Group
[18] = Serum No. 16, Non-Transmission Group
[19] = Serum No. 17, Non-Transmission Group
[20] = Serum No. 18, Non-Transmission Group
[21] = Serum No. 19, Transmission Group
[22] = Serum No. 20, Non-Transmission Group

## DREINNYTSLIHSLI [Peptide 40]
[1]; [3]
  Binding of maternal HIV+ serum to peptide (sera/NHS ratio): - (specific OD450 or cpm of sera sample binding to peptide divided by the specific OD450 or cpm of NHS sample binding to peptide, which value is less than 2)
[1]; [4]
  Binding of maternal HIV+ serum to peptide (sera/NHS ratio): - (specific OD450 or cpm of sera sample binding to peptide divided by the specific OD450 or cpm of NHS sample binding to peptide, which value is less than 2)
[1]; [5]
  Binding of maternal HIV+ serum to peptide (sera/NHS ratio): - (specific OD450 or cpm of sera sample binding to peptide divided by the specific OD450 or cpm of NHS sample binding to peptide, which value is less than 2)
[1]; [6]
  Binding of maternal HIV+ serum to peptide (sera/NHS ratio): - (specific OD450 or cpm of sera sample binding to peptide divided by the specific OD450 or cpm of NHS sample binding to peptide, which value is less than 2)
[1]; [7]
  Binding of maternal HIV+ serum to peptide (sera/NHS ratio): - (specific OD450 or cpm of sera sample binding to peptide divided by the specific OD450 or cpm of NHS sample binding to peptide, which value is less than 2)
[1]; [8]
  Binding of maternal HIV+ serum to peptide (sera/NHS ratio): - (specific OD450 or cpm of sera sample binding to peptide divided by the specific OD450 or cpm of NHS sample binding to peptide, which value is less than 2)
[1]; [9]
  Binding of maternal HIV+ serum to peptide (sera/NHS ratio): - (specific OD450 or cpm of sera sample binding to peptide divided by the specific OD450 or cpm of NHS sample binding to peptide, which value is less than 2)
[1]; [10]
  Binding of maternal HIV+ serum to peptide (sera/NHS ratio): - (specific OD450 or cpm of sera sample binding to peptide divided by the specific OD450 or cpm of NHS sample binding to peptide, which value is less than 2)
[1]; [11]
  Binding of maternal HIV+ serum to peptide (sera/NHS ratio): - (specific OD450 or cpm of sera sample binding to peptide divided by the specific OD450 or cpm of NHS sample binding to peptide, which value is less than 2)
[1]; [12]
  Binding of maternal HIV+ serum to peptide (sera/NHS ratio): - (specific OD450 or cpm of sera sample binding to peptide divided by the specific OD450 or cpm of NHS sample binding to peptide, which value is less than 2)
[1]; [13]
  Binding of maternal HIV+ serum to peptide (sera/NHS ratio): - (specific OD450 or cpm of sera sample binding to peptide divided by the specific OD450 or cpm of NHS sample binding to peptide, which value is less than 2)
[1]; [14]
  Binding of maternal HIV+ serum to peptide (sera/NHS ratio): - (specific OD450 or cpm of sera sample binding to peptide divided by the specific OD450 or cpm of NHS sample binding to peptide, which value is less than 2)
[1]; [15]
  Binding of maternal HIV+ serum to peptide (sera/NHS ratio): - (specific OD450 or cpm of sera sample binding to peptide divided by the specific OD450 or cpm of NHS sample binding to peptide, which value is less than 2)
[1]; [16]
  Binding of maternal HIV+ serum to peptide (sera/NHS ratio): - (specific OD450 or cpm of sera sample binding to peptide divided by the specific OD450 or cpm of NHS sample binding to peptide, which value is less than 2)
[1]; [17]
  Binding of maternal HIV+ serum to peptide (sera/NHS ratio): - (specific OD450 or cpm of sera sample binding to peptide divided by the specific OD450 or cpm of NHS sample binding to peptide, which value is less than 2)
[1]; [18]
  Binding of maternal HIV+ serum to peptide (sera/NHS ratio): - (specific OD450 or cpm of sera sample binding to peptide divided by the specific OD450 or cpm of NHS sample binding to peptide, which value is less than 2)
[1]; [19]
  Binding of maternal HIV+ serum to peptide (sera/NHS ratio): - (specific OD450 or cpm of sera sample binding to peptide divided by the specific OD450 or cpm of NHS sample binding to peptide, which value is less than 2)
[1]; [20]
  Binding of maternal HIV+ serum to peptide (sera/NHS ratio): - (specific OD450 or cpm of sera sample binding to peptide divided by the specific OD450 or cpm of NHS sample binding to peptide, which value is less than 2)
[1]; [21]
  Binding of maternal HIV+ serum to peptide (sera/NHS ratio): - (specific OD450 or cpm of sera sample binding to peptide divided by the specific OD450 or cpm of NHS sample binding to peptide, which value is less than 2)
[1]; [22]
  Binding of maternal HIV+ serum to peptide (sera/NHS ratio): - (specific OD450 or cpm of sera sample binding to peptide divided by the specific OD450 or cpm of NHS sample binding to peptide, which value is less than 2)
[2]
  Number of Non-Transmitters which bound to peptide: 1
  Percent of Non-Transmitters which bound to peptide: 8.3%
  Number of Transmitters which bound to peptide: 0
  Percent of Transmitters which bound to peptide: 0%

## RIQRGPGRAFVTIGK [p18p]
[1]; Non-transmitter group, n = 13
  Percentage of sera samples demonstrating binding to peptide, non-transmitter: 30.7%
[1]; [3]
  Binding of maternal HIV+ serum to peptide (sera/NHS ratio): - (specific OD450 or cpm of sera sample binding to peptide divided by the specific OD450 or cpm of NHS sample binding to peptide, which value is less than 2)
[1]; [4]
  Binding of maternal HIV+ serum to peptide (sera/NHS ratio): - (specific OD450 or cpm of sera sample binding to peptide divided by the specific OD450 or cpm of NHS sample binding to peptide, which value is less than 2)
[1]; [5]
  Binding of maternal HIV+ serum to peptide (sera/NHS ratio): - (specific OD450 or cpm of sera sample binding to peptide divided by the specific OD450 or cpm of NHS sample binding to peptide, which value is less than 2)
[1]; [6]
  Binding of maternal HIV+ serum to peptide (sera/NHS ratio): - (specific OD450 or cpm of sera sample binding to peptide divided by the specific OD450 or cpm of NHS sample binding to peptide, which value is less than 2)
[1]; [7]
  Binding of maternal HIV+ serum to peptide (sera/NHS ratio): - (specific OD450 or cpm of sera sample binding to peptide divided by the specific OD450 or cpm of NHS sample binding to peptide, which value is less than 2)
[1]; [8]
  Binding of maternal HIV+ serum to peptide (sera/NHS ratio): - (specific OD450 or cpm of sera sample binding to peptide divided by the specific OD450 or cpm of NHS sample binding to peptide, which value is less than 2)
[1]; [9]
  Binding of maternal HIV+ serum to peptide (sera/NHS ratio): - (specific OD450 or cpm of sera sample binding to peptide divided by the specific OD450 or cpm of NHS sample binding to peptide, which value is less than 2)
[1]; [10]
  Binding of maternal HIV+ serum to peptide (sera/NHS ratio): - (specific OD450 or cpm of sera sample binding to peptide divided by the specific OD450 or cpm of NHS sample binding to peptide, which value is less than 2)
[1]; [11]
  Binding of maternal HIV+ serum to peptide (sera/NHS ratio): - (specific OD450 or cpm of sera sample binding to peptide divided by the specific OD450 or cpm of NHS sample binding to peptide, which value is less than 2)
[1]; [12]
  Binding of maternal HIV+ serum to peptide (sera/NHS ratio): - (specific OD450 or cpm of sera sample binding to peptide divided by the specific OD450 or cpm of NHS sample binding to peptide, which value is less than 2)
[1]; [13]
  Binding of maternal HIV+ serum to peptide (sera/NHS ratio): - (specific OD450 or cpm of sera sample binding to peptide divided by the specific OD450 or cpm of NHS sample binding to peptide, which value is less than 2)
[1]; [14]
  Binding of maternal HIV+ serum to peptide (sera/NHS ratio): ++ (which value is greater than 3)
[1]; [15]
  Binding of maternal HIV+ serum to peptide (sera/NHS ratio): ++ (which value is greater than 3)
[1]; [16]
  Binding of maternal HIV+ serum to peptide (sera/NHS ratio): ++ (which value is greater than 3)
[1]; [17]
  Binding of maternal HIV+ serum to peptide (sera/NHS ratio): ++ (which value is greater than 3)
[1]; [18]
  Binding of maternal HIV+ serum to peptide (sera/NHS ratio): + (which value is between 2 to 3)
[1]; [19]
  Binding of maternal HIV+ serum to peptide (sera/NHS ratio): ++ (which value is greater than 3)
[1]; [20]
  Binding of maternal HIV+ serum to peptide (sera/NHS ratio): - (specific OD450 or cpm of sera sample binding to peptide divided by the specific OD450 or cpm of NHS sample binding to peptide, which value is less than 2)
[1]; [21]
  Binding of maternal HIV+ serum to peptide (sera/NHS ratio): - (specific OD450 or cpm of sera sample binding to peptide divided by the specific OD450 or cpm of NHS sample binding to peptide, which value is less than 2)
[1]; [22]
  Binding of maternal HIV+ serum to peptide (sera/NHS ratio): + (which value is between 2 to 3)
[1]; Transmitter / transmission group, n = 7
  Percentage of sera samples demonstrating binding to peptide, transmitter: 42.8%
[1]; all 20 samples
  Percent of the maternal serum samples that bound to the peptide: 35%
[2]
  Number of Non-Transmitters which bound to peptide: 3
  Percent of Non-Transmitters which bound to peptide: 25%
  Number of Transmitters which bound to peptide: 0
  Percent of Transmitters which bound to peptide: 0%
